Measured values taken from patent US20070191437A1, “Continuous Dosing Regimen” (priority 2003, published 2007).
Marks after values point to notes of the source that are not given here. Each block holds one compound with its values, some of them ahead of it.

What was measured:
[1] = test system: M5076 murine reticulum cell sarcoma; conditions: for response of the model to the drug / ILS: comparator drugs, dose not given
[2] = test system: MiaPaCa2 pancreatic; assay: MiaPaCa2 pancreatic xenograft model, combination with gemcitabine; assay type: in vivo; conditions: in combination with gemcitabine
[3] = Clinical 21-day QD regimen, MTD determination; assay type: in vivo
[4] = test system: NCI-H460 human non-small cell lung carcinoma; assay: NCI-H460 xenograft model; assay type: in vivo; conditions: for activity: comparators
Excerpt: NCI-H460 is a human non-small cell lung carcinoma derived cell line. It is MDR negative, has wild type p53, and contains an oncogenic K-ras mutation.

[5] = test system: Calu-6 lung carcinoma; assay: Staged human tumor xenograft, Calu-6; assay type: in vivo; conditions: oral 75 mg/kg/d QD, d 10-14, 20-24
Excerpt: (§1) (2-((hydroxyphenyl)amino)pyrid-3-yl)-4-methoxybenzenesulfonamide inhibited the growth of a variety of human tumor xenografts that were allowed to grow into established tumors prior to the initiation of treatment. As summarized below, activity was seen against established tumors derived from colon, breast and lung carcinomas. (2-((4-hydroxyphenyl)amino)pyrid-3-yl)-4-methoxybenzenesulfonamide was also active against a human pancreatic tumor xenograft grown in the orthotopic site.

[6] = Clinical single dose and 5-day repeated dose study in 57 cancer subjects; assay type: in vivo, human
Description: (2-((4-hydroxyphenyl)amino)pyrid-3-yl)-4-methoxybenzenesulfonamide was evaluated in 57 cancer subjects in single dose (16 subjects) and 5-day repeated dose regimens (41 subjects). The doses administered in the single dose segment were 80 to 480 mg/m^2/day. In the 5-day repeated dose regimen (2-((4-hydroxyphenyl)amino)pyrid-3-yl)-4-methoxybenzenesulfonamide was given at 30 to 240 mg/m^2/day for a single cycle. […] Adverse drug reactions from the single dose and 5-day repeated dose segments included nausea and vomiting, diarrhea, epigastric pain, ileus and evidence of peripheral neuropathy. For the single dose segment, the dose limiting toxicity (DLT) was Grade 3 peripheral neuropathy in 1 of 5 subjects at 480 mg/m^2/day. In the 5-day repeated dose regimen the dose limiting toxicities were Grade 3 peripheral neuropathy in 1 of 4 subjects at 210 mg/m^2/day and Grade 4 intestinal paralysis in 1 of 4 subjects at 210 mg/m^2/day and in 1 of 6 subjects at 240 mg/m^2/day.

[7] = test system: C26 colon tumors; assay: C26 colon tumors grown in the flank of CDF-1 mice; assay type: in vivo
[8] = test system: MDA-MB-468 breast carcinoma; assay: Staged human tumor xenograft, MDA-MB-468; assay type: in vivo
Excerpt: as §1

[9] = test system: HCT-15 human colon carcinoma; assay: HCT-15 human colon carcinoma xenografts; assay type: in vivo; conditions: for efficacy in inhibiting tumor growth: MDR positive line
Excerpt: HCT-15 is a human colon carcinoma derived cell line. It is MDR positive, and expresses both mutant p53 and oncogenic K-ras. The HCT-15 cell line has one of the highest levels of mdr-1/P-glycoprotein expression of cells from the NCI tumor cell line panel.

[10] = test system: HT-29 colon carcinoma; assay: Staged human tumor xenograft, HT-29; assay type: in vivo; conditions: oral 75 mg/kg/d QD, d 10-14, 20-24
Excerpt: as §1

[11] = Clinical 7-day QD regimen, MTD determination; assay type: in vivo
Description: In the 7-day QD regimen, the 250 mg QD dose has been determined to be the MTD, as dose limiting toxicities of peripheral neuropathy/ileus were reported in 2 of 6 subjects at the 300 mg QD dose.

[12] = Calu-6 flank xenograft model in male scid mice, HPM with docetaxel (Example 1); assay type: in vivo; conditions: male, scid, mouse, in vivo
Description: (§2) Male scid mice (Charles River Labs.) were injected subcutaneously with 0.2 mL of 2×10^6 Calu-6 cells (1:1 with matrigel) on study day 0. The cellular implantation site was the right flank, and all mice were ear tagged. On day 13, tumors were size matched to 247 mm^3 and animals were placed into the therapy groups outlined in the study design below. All treatments were initiated on day 13 post tumor inoculation. The tumors were measured with calipers 2 times per week after tumors were palpable. Tumor volumes were calculated according to the formula V=L×W^2/2 (V: volume, mm^3; L: length, mm. W: width, mm). Mouse group weights were taken 2 times per week to monitor weight loss from toxicity or excessive tumor burden. The mice were humanely euthanized when the tumor volumes reached a predetermined size. The study design was as follows:
(§3) 1. HPM vehicle and docetaxel at 20 mg/kg/day.
(§4) 2. HPM vehicle and docetaxel at 10 mg/kg/day.
(§5) 3. HPM at 100 mg/kg/day and docetaxel vehicle.
(§6) 4. HPM at 75 mg/kg/day and docetaxel vehicle.
(§7) 5. HPM at 100 mg/kg/day and docetaxel at 20 mg/kg/day.
(§8) 6. HPM at 100 mg/kg/day and docetaxel at 10 mg/kg/day.
(§9) 7. HPM at 75 mg/kg/day and docetaxel at 20 mg/kg/day.
(§10) 8. HPM at 75 mg/kg/day and docetaxel at 10 mg/kg/day.
(§11) 9. HPM vehicle and docetaxel vehicle.
(§12) HPM was dosed orally on a (q.d.×5, 5 days off)×2 schedule. The drug was formulated in 1% HCl, 4% ethanol, and 95% D5W. Docetaxel was dosed intravenously, (q.10d.)×2 and formulated in saline.

[13] = Clinical safety review, adverse events by grade; assay type: in vivo, human
Description: For 134 patients tested, at doses of about 200 mg QD, 250 mg QD, 300 mg QD, 125 mg BID, 150 mg BID, and 175 mg BID, 16 reported anemia, of which 11 were Grades I or II and 5 were Grades (III or IV); 1 reported Grade I or II alpoecia; 8 reported Grade I or II neutropenia; and none reported fluid retention, for which Grade I is defined as mild, Grade II is defined as moderate, Grade III is defined as severe, Grade IV is defined as life threatening.

[14] = test system: Calu-6 lung; assay: Calu-6 lung subcutaneous flank xenografts in male nude mice, HPM with cisplatin (Example 6); assay type: in vivo; conditions: 10 mg/kg/day i.p., q.d × 1
Description: In a non-small cell lung cancer study, tumor cells were inoculated s.c. into male nude mice on day 0. On day 10, mice bearing established tumors were size matched at about 233 mm^3 and placed into the following groups: • 1. […]., 5 days on, 5 days off ×2) • 2. PM-75 mg/kg/day (p.o., q.d., 5 days on, 5 days off×2) • 3. PM-0 mg/kg/day (p.o., q.d., 5 days on, 5 days off ×2) • 4. […] Cisplatin 0 mg/kg/day (ip, qd ×1) • 6. […] Combination Therapy Vehicles

[15] = test system: MDA-MB-468 breast; assay: MDA-MB-468 breast subcutaneous flank xenografts in female nude mice, HPM with docetaxel (Example 3); assay type: in vivo; conditions: 33.3 mg/kg/day i.v., q.d × 1
Description: Tumor cells derived from serially passaged tumor fragments were inoculated s.c. in female nude mice on day 0. On day 10, mice bearing established tumors were size matched at about 231 mm^3 and divided into the following groups:
1. HPM at 100 mg/kg/day (p.o., q.d., 5 days on, 5 days off ×2)
2. HPM at 75 mg/kg/day (p.o., q.d., 5 days on, 5 days off ×2)
3. HPM at 0 mg/kg/day (p.o., q.d., 5 days on, 5 days off ×2)
4. Docetaxel at 33.3 mg/kg/day (i.v., q.d. ×1)
5. Docetaxel at 0 mg/kg/day (i.v., q.d. ×1)
6. Combination therapy: HPM at 100 mg/kg/day and docetaxel at 33.3 mg/kg/day
7. Combination therapy: HPM at 75 mg/kg/day and docetaxel at 33.3 mg/kg/day

[16] = test system: Calu-6 cells; assay: Calu-6 flank xenograft model in male scid mice, HPM with docetaxel (Example 1); assay type: in vivo; conditions: docetaxel q.10d. at 20 mg/kg/day
Description: as §2, §3, §4, §5, §6, §7, §8, §9, §10, §11, §12

[17] = target: biotinylated bovine brain tubulin; conditions: competition of [3H]colchicine
[18] = 5-day repeated dose regimen, 210 mg/m^2/day
[19] = 134 patients, 200-300 mg QD, 125-175 mg BID

SMILES: COc1ccc(S(=O)(=O)Nc2cccnc2Nc2ccc(O)cc2)cc1 [ABT-751, N-(2-((4-Hydroxyphenyl)amino)pyridin-3-yl)-4-methoxybenzenesulfonamide]
ILS (percent increase in life span) ([1]; 150 mg/kg orally once a day for 5 days): 42% | approximate MTD ([1]; orally once a day for 5 days): ~150 mg/kg | antitumor activity compared to single agent alone [2]: increase in antitumor activity | MTD ([3]; QD regimen given for 21 days): 200 mg | dose limiting toxicities of fatigue, anorexia and suspect small bowel obstruction, subjects ([3]; human, in vivo, 21 days): 2/3 | T/C, mean tumor volume at day 13 ([4]; day 13 vs vehicle control): 58% | ILS (delay in tumor growth) ([4]; in vivo): 32% | % ILS [5]: 58% | dose limiting toxicity: Grade 3 peripheral neuropathy, subjects [6, 18]: 1 of 4 | dose limiting toxicity: Grade 4 intestinal paralysis, subjects [6, 18]: 1 of 4 | dose limiting toxicity: Grade 4 intestinal paralysis, subjects ([6]; 5-day repeated dose regimen, 240 mg/m^2/day): 1 of 6 | AUC versus dose ([6]; range of 30 to 480 mg/m^2/day): increased proportionally with dose | accumulation ([6]; range of 30 to 480 mg/m^2/day): no apparent accumulation | dose limiting toxicity: Grade 3 peripheral neuropathy, subjects ([6]; single dose segment, 480 mg/m^2/day): 1 of 5 | antitumor activity ([7]; 5-day schedule): only marginally active | antitumor activity ([7]; extended dosing, equivalent to BCNU at the MTD): significant antitumor response | % T/C ([8]; oral 50 mg/kg/d QD, d 1-21): 46% | % T/C ([8]; oral 75 mg/kg/d QD, d 10-14, 20-24): 33% | % T/C ([8]; oral 100 mg/kg/d QD, d 10-14, 20-24): 25% | % ILS ([9]; 50 mg/kg/d PO, QD, days 1-8): 34% | T/C (no. trials) ([9]; 50 mg/kg/d PO, QD, days 1-8): 50(2) | efficacy in inhibiting tumor growth [9]: effective in inhibiting tumor growth | % ILS [10]: 50% | MTD ([11]; 7-day QD regimen): 250 mg | dose limiting toxicities of peripheral neuropathy/ileus, subjects ([11]; human, in vivo, 7 days): 2 of 6 | MTD ([12]; po, HPM orally (q.d.×5, 5 days off)×2, mice): 100 mg/kg/day | patients who reported Grade I or II alopecia [13, 19]: 1 | patients who reported Grade I or II neutropenia [13, 19]: 8 | patients who reported anemia [13, 19]: 16 | patients who reported fluid retention [13, 19]: none | patients with anemia of Grades I or II [13, 19]: 11 | patients with anemia of Grades III or IV [13, 19]: 5 | myelosuppression, renal or hepatic toxicity ([13]; review of the safety data of the three studies): no significant myelosuppression, renal or hepatic toxicity

SMILES: N.N.[Cl][Pt][Cl] [Cisplatin, cisplatin]
% TGD^a: median % TGD increase compared to vehicle treated controls in time to 1 cc [14]: 71*** %

SMILES: O=P1(N(CCCl)CCCl)NCCCO1 (centres unmarked) [cyclophosphamide]
response of the model to the drug [1]: sensitive

SMILES: CC(=O)O[C@@]12CO[C@@H]1C[C@H](O)[C@@]1(C)C(=O)[C@H](O)C3=C(C)[C@@H](OC(=O)[C@H](O)[C@@H](NC(=O)OC(C)(C)C)c4ccccc4)C[C@@](O)([C@@H](OC(=O)c4ccccc4)[C@H]21)C3(C)C [docetaxel]
% TGD^a: median % TGD increase compared to vehicle treated controls in time to 1 cc [15]: 67*** % | maximum wt loss [16]: 8% | MTD ([12]; intravenous, docetaxel on a q.10d.×2 schedule, mice): 25 mg/kg/day

SMILES: COc1cccc2c1C(=O)c1c(O)c3c(c(O)c1C2=O)C[C@@](O)(C(=O)CO)C[C@@H]3O[C@H]1C[C@H](N)[C@H](O)[C@H](C)O1 [doxorubicin]
ILS [1]: 13%

SMILES: CC(=O)O[C@H]1C(=O)[C@@]2(C)[C@H]([C@H](OC(=O)c3ccccc3)[C@]3(O)C[C@H](OC(=O)[C@H](O)[C@@H](NC(=O)c4ccccc4)c4ccccc4)C(C)=C1C3(C)C)[C@]1(OC(C)=O)CO[C@@H]1C[C@@H]2O [paclitaxel, reference compound]
response of the model to the drug [1]: resistant | activity [4]: lacked activity | antitumor activity ([7]; comparator, dose not given): not efficacious | efficacy in inhibiting tumor growth [9]: not efficacious

Ki [17]: > 100 µM
SMILES: CC[C@]1(O)C[C@@H]2CN(CCc3c([nH]c4ccccc34)[C@@](C(=O)OC)(c3cc4c(cc3OC)N(C)[C@H]3[C@@](O)(C(=O)OC)[C@H](OC(C)=O)[C@]5(CC)C=CCN6CC[C@]43[C@@H]65)C2)C1 [vinblastine]

SMILES: CC[C@]1(O)C[C@H]2CN(CCc3c([nH]c4ccccc34)[C@@](C(=O)OC)(c3cc4c(cc3OC)N(C=O)[C@H]3[C@@](O)(C(=O)OC)[C@H](OC(C)=O)[C@]5(CC)C=CCN6CC[C@]43[C@@H]65)C2)C1 [vincristine, reference compound]
ILS [1]: 17% | activity [4]: lacked activity | efficacy in inhibiting tumor growth [9]: not efficacious
